In US8173689B2 (Novartis AG, priority 2006, dated 2012):
Like-named read-outs stand apart in the source and are kept apart here.

Columns and labels:
[1] = target: T1, kinase domain of cKIT (Homo sapiens, UniProt P10721); assay: Inhibition of cKIT kinase signaling in an in vitro biochemical assay (alphascreen); conditions: tested at about 1 μM, read-out: cKit percent inhibition
T1 construct: The kinase domain of cKIT was assayed in 50 mM Hepes; purchased Upstate 14-559
Description: (§1) The IC50 values for the inhibition of RTKs were determined in the alphascreen format measuring the inhibition by compound of phosphate transfer to a substrate by the respective enzyme. Briefly, the respective RTK domain purchased as human recombinant protein (cKIT Upstate #14-559, PDGFRb Invitrogen #P3082) were incubated with serial dilutions of compound in the presence of substrate and ATP concentrations within 3 times the Km of the enzyme.
(§2) Alphascreen PY20 beads were added to the stopped cKIT reactions and PY20 Ab/Protein A Alphascreen beads were added to the PDGFRβ stopped reactions. Both reactions were incubated overnight and read on the Alphascreen reader.

[2] = target: T2, cytoplasmic domain of the human CSF-1R (Homo sapiens, UniProt P07333); assay: In vitro kinase assay for colony stimulating factor-1 receptor (AlphaScreen); type: biochemical; conditions: tested at about 1 μM, read-out: CSF-1R percent inhibition
T2 construct: Recombinant protein corresponding to the cytoplasmic domain of the human CSF-1R; purchased Invitrogen Corporation, Carlsbad, Calif; PV3249
T2 sequence (P07333 539-972 limits assumed): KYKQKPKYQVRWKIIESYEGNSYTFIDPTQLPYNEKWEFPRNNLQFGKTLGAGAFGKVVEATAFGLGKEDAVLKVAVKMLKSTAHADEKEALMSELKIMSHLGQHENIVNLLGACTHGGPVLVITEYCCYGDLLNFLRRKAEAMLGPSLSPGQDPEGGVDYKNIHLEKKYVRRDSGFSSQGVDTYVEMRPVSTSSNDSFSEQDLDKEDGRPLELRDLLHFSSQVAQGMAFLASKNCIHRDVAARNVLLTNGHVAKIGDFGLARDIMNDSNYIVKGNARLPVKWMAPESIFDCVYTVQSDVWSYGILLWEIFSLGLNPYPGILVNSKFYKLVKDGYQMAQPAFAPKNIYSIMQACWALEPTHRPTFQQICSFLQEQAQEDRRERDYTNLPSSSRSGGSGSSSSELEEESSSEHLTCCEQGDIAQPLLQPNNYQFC
Description: The kinase activity of various protein tyrosine kinases can be measured by providing ATP and a suitable peptide or protein tyrosine-containing substrate, and assaying the transfer of phosphate moiety to the tyrosine residue. Recombinant protein corresponding to the cytoplasmic domain of the human CSF-1R was purchased from Invitrogen Corporation, Carlsbad, Calif. U.S.A. (#PV3249). For each assay, test compounds were serially diluted, starting at 25 μM with 3 fold dilutions, in DMSO in 384 well plates then mixed with an appropriate kinase reaction buffer consisting of 50 mM Hepes, 5 mM MgCl2, 10 mM MnCl2, 0.1% BSA, pH 7.5, 1.0 mM dithiothreitol, 0.01% Tween 80 plus 1 μM ATP. […] Added to the stopped reaction mix was 30 μL of PT66 Alphascreen beads (Perkin Elmer, Boston, Mass., U.S.A.). The reaction was incubated overnight and read on the Envision (Perkin Elmer). Phosphorylated peptide product was measured with the AlphaScreen system (Perkin Elmer) using acceptor beads coated with anti-phosphotyrosine antibody PT66 and donor beads coated with streptavidin that emit a fluorescent signal at the 520-620 nm emission wave length if in close proximity.
CSF-1R kinase was added at final concentration of 4 nM.

[3] = target: T3, kinase domain of PDGFRβ (Homo sapiens, UniProt P09619); assay: Inhibition of PDGFRb kinase signaling in an in vitro biochemical assay (alphascreen); conditions: tested at about 1 μM, read-out: PDGFRβ percent inhibition
T3 construct: The kinase domain of PDGFRβ was assayed in 50 mM Hepes; purchased Invitrogen P3082
T3 sequence (P09619 600-962 limits assumed): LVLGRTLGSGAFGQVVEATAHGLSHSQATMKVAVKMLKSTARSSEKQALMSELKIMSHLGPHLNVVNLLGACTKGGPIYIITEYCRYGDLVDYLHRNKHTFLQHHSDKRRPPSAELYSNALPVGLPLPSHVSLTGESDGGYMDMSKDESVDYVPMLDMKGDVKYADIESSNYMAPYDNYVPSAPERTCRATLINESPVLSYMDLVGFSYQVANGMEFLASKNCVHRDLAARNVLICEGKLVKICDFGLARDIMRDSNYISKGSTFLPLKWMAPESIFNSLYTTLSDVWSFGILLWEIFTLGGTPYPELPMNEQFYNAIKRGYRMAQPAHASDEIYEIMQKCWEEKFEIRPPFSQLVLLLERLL
Description: as §1, §2

T1 sequence (P10721 589-937 limits assumed): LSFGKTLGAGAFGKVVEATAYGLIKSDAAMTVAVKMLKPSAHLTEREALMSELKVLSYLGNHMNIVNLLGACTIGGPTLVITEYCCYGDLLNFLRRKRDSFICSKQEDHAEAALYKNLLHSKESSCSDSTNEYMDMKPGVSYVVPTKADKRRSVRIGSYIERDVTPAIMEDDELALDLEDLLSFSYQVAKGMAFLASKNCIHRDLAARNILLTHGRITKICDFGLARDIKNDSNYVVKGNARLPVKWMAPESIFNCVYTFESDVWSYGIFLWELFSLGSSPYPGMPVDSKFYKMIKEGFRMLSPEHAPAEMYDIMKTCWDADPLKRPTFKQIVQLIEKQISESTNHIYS

| SMILES | inhibition at 1 µM [1] | inhibition at 1 µM [2] | inhibition at 1 µM [3] | inhibition at 1 µM ([1]; compounds of Table 3) | inhibition at 1 µM ([2]; compounds of Table 3) | inhibition at 1 µM ([3]; compounds of Table 3) |
| --- | --- | --- | --- | --- | --- | --- |
| CNC(=O)c1cc(Oc2ccc3nc(NCC4CCCO4)oc3c2)ccn1 (stereo not drawn) [Compound 102, 4-{2-[(Tetrahydro-furan-2-ylmethyl)-amino]-benzooxazol-6-yloxy}-pyridine-2-carboxylic acid methylamide] | 14% | 83% | 0% | – | – | – |
| CNC(=O)c1cc(Oc2ccc3nc(NC[C@H](C)O)sc3c2)ccn1 [Compound 100] | – | – | – | 0% | 81% | 6% |
| CNC(=O)c1cc(Oc2ccc3nc(N[C@H]4CC[C@@H](NC(=O)[C@@H]5CCCO5)CC4)sc3c2)ccn1 [Compound 136] | – | – | – | 3% | 86% | 0% |
| CNC(=O)c1cc(Oc2ccc3nc(NCC(O)COC)sc3c2)ccn1 (stereo not drawn) [Compound 127] | – | – | – | 0% | 95% | 0% |
| CNC(=O)c1cc(Oc2ccc3nc(N[C@@H](C(=O)NC)C4CCCCC4)oc3c2)ccn1 [Compound 62, 4-{2-[((R)-Cyclohexyl-methylcarbamoyl-methyl)-amino]-benzooxazol-6-yloxy}-pyridine-2-carboxylic acid methylamide] | 7% | 19% | 5% | – | – | – |
| CNC(=O)c1cc(Oc2ccc3nc(NC4CCN(c5ccccc5)CC4)oc3c2)ccn1 [Compound 107, 4-[2-(1-Phenyl-piperidin-4-ylamino)-benzooxazol-6-yloxy]-pyridine-2-carboxylic acid methylamide] | 8% | 67% | 0% | – | – | – |
| CN1CCN(c2cc(Oc3ccc4nc(N[C@@H]5CCCC[C@H]5O)sc4c3)ccn2)CC1 [Cmpd 176, (1R,2R)-2-(6-(2-(4-methylpiperazin-1-yl)pyridin-4-yloxy)benzo[d]thiazol-2-ylamino)cyclohexanol] | – | – | – | 12% | 63% | 0% |
| CNC(=O)c1cc(Oc2ccc3nc(NC(C)C(O)c4cc(OC)ccc4OC)sc3c2)ccn1 (stereo not drawn) [Compound 123] | – | – | – | 1% | 62% | 0% |
| CNC(=O)c1cc(Oc2ccc3nc(N[C@H]4c5ccccc5C[C@H]4O)oc3c2)ccn1 [Compound 49, 4-[2-((1S,2R)-2-Hydroxy-indan-1-ylamino)-benzooxazol-6-yloxy]-pyridine-2-carboxylic acid methylamide] | 63% | 55% | 25% | – | – | – |
| CNC(=O)c1cc(Oc2ccc3nc(NCC(C)C)oc3c2)ccn1 [Compound 99, 4-(2-Isobutylamino-benzooxazol-6-yloxy)-pyridine-2-carboxylic acid methylamide] | 12% | 63% | 9% | – | – | – |
| O[C@@H]1CCCC[C@H]1Nc1nc2ccc(Oc3ccnc(C4=CCNCC4)c3)cc2s1 [Compound 161] | – | – | – | 20% | 54% | 26% |
| O[C@@H]1CCCC[C@H]1Nc1nc2ccc(Oc3ccnc(C4CC4)c3)cc2s1 [Cmpd 169, (1R,2R)-2-(6-(2-cyclopropylpyridin-4-yloxy)benzo[d]thiazol-2-ylamino)cyclohexanol] | – | – | – | 12% | 75% | 0% |
| CNC(=O)c1cc(Oc2ccc3nc(NC[C@@H](C)O)sc3c2)ccn1 [Compound 99] | – | – | – | 0% | 86% | 0% |
| Cn1cc(-c2cc(Oc3ccc4nc(N[C@@H]5CCCc6ccccc65)sc4c3)ccn2)cn1 [Example 363, (R)-6-(2-(1-methyl-1H-pyrazol-4-yl)pyridin-4-yloxy)-N-(1,2,3,4-tetrahydronaphthalen-1-yl)benzo[d]thiazol-2-amine] | 100% | 100% | 99% | – | – | – |
| CCN1CCC[C@H]1CNC(=O)c1cc(Oc2ccc3nc(N[C@@H]4CCCC[C@H]4O)sc3c2)ccn1 [Compound 20] | – | – | – | 0% | 76% | 0% |
| CC(=O)N[C@@H]1CCN(c2cc(Oc3ccc4nc(N[C@@H]5CCCC[C@H]5O)sc4c3)ccn2)C1 [Cmpd 177, N-((R)-1-(4-(2-((1R,2R)-2-hydroxycyclohexylamino)benzo[d]thiazol-6-yloxy)pyridin-2-yl)pyrrolidin-3-yl)acetamide] | – | – | – | 15% | 67% | 0% |
| CNC(=O)c1cc(Oc2ccc3nc(NC4CCCCCCC4)sc3c2)ccn1 [Compound 129] | – | – | – | 99% | 100% | 99% |
| CNC(=O)c1cc(Oc2ccc3nc(N[C@H]4CC[C@@H](NC(=O)[C@@H]5CCCN5C)CC4)sc3c2)ccn1 [Compound 137] | – | – | – | 8% | 71% | 2% |
| N#Cc1cc(Oc2ccc3nc(NCC4CCCCC4)oc3c2)ccn1 [Compound 82, 4-[2-(Cyclohexylmethyl-amino)-benzooxazol-6-yloxy]-pyridine-2-carbonitrile] | 9% | 46% | 0% | – | – | – |
| CNC(=O)c1cc(Oc2ccc3nc(N[C@@H]4CCCC[C@H]4NC(=O)C(C)C)sc3c2)ccn1 [Example 327, 4-(2-((1R,2R)-2-isobutyramidocyclohexyl-amino)benzo[d]thiazol-6-yloxy)-N-methylpicolinamide] | 6% | 47% | 0% | – | – | – |
| O[C@@H]1CCCC[C@H]1Nc1nc2ccc(Oc3ccnc(Cl)c3)cc2s1 [Example 225, (1R,2R)-2-(6-(2-chloropyridin-4-yloxy)benzo[d]thiazol-2-ylamino)cyclohexanol] | – | – | – | 21% | 90% | 0% |
| CNC(=O)c1cc(Oc2ccc3nc(N[C@H]4CCCN(C(=O)NC(C)C)C4)sc3c2)ccn1 [Example 333, (S)-4-(2-(1-(isopropylcarbamoyl)piper-idin-3-ylamino)benzo[d]thiazol-6-yloxy)-N-methylpicolinamide] | 21% | 86% | 6% | – | – | – |
| Cn1cc(-c2cc(Oc3ccc4nc(NCCC5CCOCC5)sc4c3)ccn2)cn1 [Example 361, 6-(2-(1-methyl-1H-pyrazol-4-yl)pyridin-4-yloxy)-N-(2-(tetrahydro-2H-pyran-4-yl)ethyl)benzo[d]thiazol-2-amine] | 100% | 100% | 75% | – | – | – |
| CNC(=O)c1cc(Oc2ccc3nc(NCC4(C(=O)NC)CCCCC4)oc3c2)ccn1 [Compound 112, 4-{2-[(1-Methylcarbamoyl-cyclohexylmethyl)-amino]-benzooxazol-6-yloxy}-pyridine-2-carboxylic acid methylamide] | 0% | 28% | 5% | – | – | – |
| CNC(=O)c1cc(Oc2ccc3nc(N[C@H](CCO)c4ccccc4)oc3c2)ccn1 [Compound 51, 4-[2-((R)-3-Hydroxy-1-phenyl-propylamino)-benzooxazol-6-yloxy]-pyridine-2-carboxylic acid methylamide] | 40% | 95% | 2% | – | – | – |
| OCc1cc(Oc2ccc3nc(NCC4CCCCC4)oc3c2)ccn1 [Compound 80, {4-[2-(Cyclohexylmethyl-amino)-benzooxazol-6-yloxy]-pyridin-2-yl}-methanol] | 7% | 87% | 0% | – | – | – |
